3 molecules from patent publication US5234937A, “3,5-di-tertiary-butyl-4-hydroxphenyl oxazolyl methanones and related compounds as antiinflammatory agents” (Warner-Lambert Company, priority 1991, dated 1993) can be followed below.

One experiment concerns the target T1, 5-Lipoxygenase (Rattus norvegicus, UniProt P12527).
T1 construct: host or cells: RBL-1 (rat basophilic leukemia)
T1 sequence (P12527 1-673): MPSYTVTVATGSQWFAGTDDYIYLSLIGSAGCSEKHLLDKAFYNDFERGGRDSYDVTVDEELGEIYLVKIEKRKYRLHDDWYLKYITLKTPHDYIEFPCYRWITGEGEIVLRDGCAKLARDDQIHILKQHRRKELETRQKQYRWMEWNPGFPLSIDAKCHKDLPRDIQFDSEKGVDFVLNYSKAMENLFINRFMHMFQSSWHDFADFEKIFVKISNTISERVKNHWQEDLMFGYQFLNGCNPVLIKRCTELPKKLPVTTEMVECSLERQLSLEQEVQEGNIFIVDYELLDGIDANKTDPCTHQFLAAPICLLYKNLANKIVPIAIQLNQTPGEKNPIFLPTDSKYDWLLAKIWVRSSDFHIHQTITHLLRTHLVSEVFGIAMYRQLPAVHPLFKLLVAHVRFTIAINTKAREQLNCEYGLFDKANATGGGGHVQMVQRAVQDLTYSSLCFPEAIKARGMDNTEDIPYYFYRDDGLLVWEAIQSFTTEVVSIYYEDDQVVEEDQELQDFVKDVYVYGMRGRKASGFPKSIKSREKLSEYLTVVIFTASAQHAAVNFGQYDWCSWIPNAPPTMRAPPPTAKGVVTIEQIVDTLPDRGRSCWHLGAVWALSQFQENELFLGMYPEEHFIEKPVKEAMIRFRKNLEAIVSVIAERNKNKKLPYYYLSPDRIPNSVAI
The experiment in a line: ARBL whole cell 5-lipoxygenase assay (LTB4 formation, RBL-1 cells). Type of experiment: cell-based. The settings on record: A23187 stimulated; for inhibition at 10 µM: read-out: ARBL Percent inhibition of LTB4 @ 10 μM. Here is the method:
(§1) ARBL/ARBC Cell 5-Lipoxygenase and Cyclooxygenase Assays The rat basophilic leukemia cell line (RBL-1) was obtained from the American Type Culture Collection (Rockville, MD). Radioimmunoassay (RIA) kits of LTB4 and PGF2α were obtained from Amersham (Arlington Heights, IL) and Seragen (Boston, MA), respectively. RBL-1 cells are grown in suspension culture in Eagle's minimum essential medium supplemented with 12% fetal bovine serum at 37° C in an incubator supplied with air-5% carbon dioxide. Cells are harvested by centrifugation. They are washed with cold phosphate buffered saline pH 7.4 (PBS; NaCl, 7.1 g; Na2 HPO4, 1.15 g; KH2 PO4, 0.2 g; and KCl, 0.2 g/L). Cells are finally suspended in PBS containing 1.0 mM calcium at a density of 2×10^6 cells/mL. Cells are incubated with and without test agent (in DMSO) (1% DMSO is without effect on arachidonic acid metabolism) for 10 minutes at room temperature. Calcium ionophore A23187 (5 μM) is added and cells are incubated for 7 minutes at 37° C. The reaction is stopped by chilling the tubes on ice for 10 minutes. Cells are separated by centrifugation and the supernatant is stored at -20° C. Aliquots (100 μ L) are analyzed for LTB4 and PGF2α using radioimmunoassay kits as provided by the supplier. Table I contains biochemical data obtained from this whole cell assay as IC50 s which are calculated as the amount of test compound causing 50% inhibition or % of inhibition at the named micromoles (μM) of […] or PGF2α formation.

Experiment [1] deals with Carrageenan-induced rat foot paw edema. In words: Carrageenan-induced rat foot paw edema 2 (CFE 2) assay. Type of experiment: in vivo. The settings on record: 3 mg/kg, dosed 1 hour before carrageenan, edema measured 5 hours after carrageenan. Here is the method: Carraogenan-Induced Rat Foot Paw Edema 2 (CFE 2) Assay: Protocol
Carageenan solution (1% w/v) is prepared by dissolving 100 mg carrageenan (Marine Colloidal Div., Springfield, NJ) in 10 mL of sterile saline (0.9%) solution (Travenol). The solution is vortexed for 30 to 45 minutes. Animals are dosed with compound 1 hour before carrageenan challenge. Foot paw edema is induced by injecting 0.10 mL of the 1% carrageenan subcutaneously into the plantar portion of the right hind paw of each rat under light anesthesia. Initial foot paw volume is measured immediately following carrageenan challenge using mercury plethysmography (Buxco Electronics). Edema is measured 5 hours after carrageenan. The difference between the 5-hour and the initial paw volume is expressed as delta edema. The delta edema for each test group of animals is used to calculate the percent inhibition of edema achieved by the compound at the test dose compared with the vehicle control group. The data in Table I (the dose at which swelling is inhibited by the noted percent) is calculated by probit analysis for the dose at which percent inhibition occurs.
(In general: Carrageenan injected into the paw causes an acute inflammation.)

The subject of a further experiment is Cyclooxygenase. The experiment in a line: ARBC whole cell cyclooxygenase assay (PGF2α formation, RBL-1 cells). The settings on record: A23187 stimulated. Format: cell-based, rat. The procedure:
as §1

The IC50 is the concentration that inhibits the measured activity by half. For `Cc1cc(C(=O)c2cc(C(C)(C)C)c(O)c(C(C)(C)C)c2)no1` [Example 1, [3,5-Bis(1,1-dimethylethyl)-4-hydroxyphenyl](5-methyl-3-isoxazolyl)methanon], the concentration for half-maximal inhibition (IC50) on 5-Lipoxygenase (LTB4 by RIA, read-out: ARBL IC50 for LTB4 inhibition) was determined as 830 nM; in the experiment on Cyclooxygenase (PGF2α by RIA), 60 nM. Further, the “CFE percent inhibition of edema” value in experiment [1] amounted to 37%.
As usually defined, the inhibition is how much of the control response was suppressed. `CON=C(c1cc(C(C)(C)C)c(O)c(C(C)(C)C)c1)c1cc(C)on1` [Example 14]: the inhibition at 10 µM on 5-Lipoxygenase amounted to 100%. Further, the “ARBC Percent inhibition of PGF2α @ 10 μM” value in the experiment on Cyclooxygenase is listed as 97%.
For `CC(C)(C)c1cc(C(=O)c2nccs2)cc(C(C)(C)C)c1O` [Example 4, [3,5-Bis(1,1 dimethylethyl)-4-hydroxyphenyl]-2-thiazolylmethanone] the same measures were 91% and 91%.
